Format in all cases: in vivo
For experiment [1], the system named is Aedes aegypti strain MONHEIM. The experiment in a line: Aedes aegypti test (surface treatment & contact assay). The following applies: 24 hours after contact, read-out: efficacy (mortality); for mortality at 20 mg/m2: surface concentration 20 mg/m^2, 30 min exposure. The method, boiled down:
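Compound dissolved in acetone (2 mg/ml) with 2000 ppm rapeseed oil methyl ester, applied to glazed tile and acetone evaporated; adult mosquitoes exposed on the dried surface for 30 min. Percent mortality scored 24 h after contact.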

Experiment [2] concerns Musca domestica strain WHO-N. As to the kind of experiment: Musca domestica test (surface treatment & contact assay). The following applies: 24 hours after contact, read-out: efficacy (mortality); for mortality at 4 mg/m2: surface concentration 4 mg/m^2, 30 min exposure; for mortality at 20 mg/m2: surface concentration 20 mg/m^2, 30 min exposure. In short, it runs like this:
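Test compound dissolved in acetone (2 mg/ml) with 2000 ppm RME, applied to glazed tile and acetone evaporated. Adult flies placed on dried surface for 30 min exposure. Mortality (%) scored 24 h after contact; 100% means all insects dead.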

The test system of the next experiment is Nezara viridula. The experiment in a line: Nezara viridula spray test. The following applies: 96 h. In short, it runs like this: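 Barley plants infested with N. viridula larvae sprayed with compound in acetone/DMF diluted in water with 1000 ppm emulsifier at the desired concentration. Mortality (%) scored after 4 days; 100% means all bugs killed.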
The subject of the next experiment is Meloidogyne incognita. As to the kind of experiment: Meloidogyne incognita test. The following applies: 20 ppm, after 14 days. As to the method:
• Solvent: 125.0 parts by weight of acetone
To produce a suitable preparation of active compound, 1 part by weight of active compound is mixed with the stated amount of solvent, and the concentrate is diluted with water to the desired concentration.
Vessels are filled with sand, a solution of the active ingredient, a suspension containing eggs and larvae of the southern root-knot nematode (Meloidogyne incognita) and salad seeds. The salad seeds germinate and the seedlings grow. Galls develop in the roots.
After 14 days the nematicidal activity is determined on the basis of the percentage of gall formation. 100% means no galls were found and 0% means the number of galls found on the roots of the treated plants was equal to that in untreated control plants.

The next experiment deals with Myzus persicae. The experiment in a line: Myzus persicae oral test. The following applies: 120 h. The method, boiled down: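 Mixed-population aphids feed through parafilm on compound solution (acetone concentrate diluted with water) combined with IPL41 insect medium (33%+15% sugar). Mortality (%) read after 5 days, 100% meaning all aphids killed.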
For experiment [3], the system named is Tetranychus urticae (OP-Resistant). The experiment in a line: Tetranychus urticae (OP-resistant) spray test. The following applies: 144 h, after 6 days. How it is done: • Solvent: 78.0 parts by weight acetone • 1.5 parts by weight dimethylformamide • Emulsifier: alkylarylpolyglycol ether
To produce a suitable preparation of active compound, 1 part by weight of active compound is mixed with the stated amount of solvents and is diluted with water, containing an emulsifier concentration of 1000 ppm, to the desired concentration. Further test concentrations are prepared by dilution with emulsifier containing water.
French bean (Phaseolus vulgaris) leaf disks infected with all instars of the two spotted spidermite (Tetranychus urticae), are sprayed with a preparation of the active ingredient of the desired concentration.
After 6 days mortality in % is determined. 100% means all spider mites have been killed and 0% means none of the spider mites have been killed.

Experiment [4] relates to Ctenocephalides felis. As to the kind of experiment: Ctenocephalides felis oral test. The following applies: 48 h, 100 ppm in cattle blood, after 2 days. In short, it runs like this: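 Adult unfed cat fleas (~20) fed through parafilm on cattle blood containing compound (DMSO concentrate diluted in blood); blood held at 37° C., fleas at room temperature. Mortality (%) scored after 2 days.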

The subject of a further experiment is Nilaparvata lugens. The experiment in a line: Nilaparvata lugens spray test. The following applies: 96 h. In short, it runs like this: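 Rice plants were sprayed with compound formulated in acetone/dimethylformamide and diluted in water containing alkylarylpolyglycol ether emulsifier, then infested with brown planthoppers. Percent mortality was scored after 4 days, where 100% means all insects killed.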

The subject of experiment [5] is Ctenocephalides felis. As to the kind of experiment: Ctenocephalides felis in-vitro contact test, adult cat flea. The following applies: 5 μg/cm^2, after 48 hours, read-out: efficacy (fleas dead or moribund). In short, it runs like this: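 Compound in acetone coated on glass tube walls (900 ppm solution, 5 μg/cm^2), solvent evaporated, then 5-10 adult fleas added and kept at room temperature. At 48 h, fleas put on a 45-50 °C plate for up to 5 min; those unable to climb scored dead or moribund, efficacy as % affected.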

The subject of a further experiment is Boophilus microplus. As to the kind of experiment: Boophilus microplus injection test. The following applies: Rhipicephalus microplus, 168 h, 20 μg/animal, egg deposition after 7 days, read-out: efficacy (infertile eggs). The method, boiled down: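 Engorged adult female ticks, five per test, received a 1 μl abdominal injection of compound in DMSO, then were kept in a climate chamber. Fertile egg deposition checked after 7 days, with unclear eggs held until hatching at about 42 days. Efficacy 100% means all eggs infertile, 0% all fertile.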

Another experiment has as its system Spodoptera frugiperda. The experiment in a line: Spodoptera frugiperda spray test. The following applies: 168 h. In short, it runs like this: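 Maize leaf sections were sprayed with compound formulated in acetone/DMF and diluted in water containing 1000 ppm emulsifier, then infested with fall armyworm larvae once dry. Percent mortality was scored after 7 days.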

Another experiment deals with Phaedon cochleariae. The experiment in a line: Phaedon cochleariae spray test. The following applies: 168 h, after 7 days. The method, boiled down:
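Chinese cabbage leaf disks sprayed with compound in acetone/DMF diluted in water with 1000 ppm alkylarylpolyglycol ether emulsifier, then infested with mustard beetle larvae once dry. Mortality (%) scored after 7 days; 100% = all larvae killed, 0% = none.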

The test system of experiment [6] is cattle ticks (Boophilus microplus) strane Parhurst, SP-resistant. As to the kind of experiment: Boophilus microplus dip test. The following applies: 100 ppm, egg deposition after 7 days. As to the method: • Test animal: cattle ticks (Boophilus microplus) strane Parhurst, SP-resistant • Solvent: dimethyl sulfoxide
To produce a suitable preparation of active compound, 10 mg of active compound are dissolved in 0.5 ml solvent, and the concentrate is diluted with water to the desired concentration.
This compound solution is pipetted into tubes. 8-10 engorged, adult, female cattle ticks (Boophilus microplus) are placed in perforated tubes. These tubes are immersed in the aqueous compound solution until the ticks are completely moistened. After the liquid has drained off, the ticks are transferred to a filter paper in a plastic tray and stored in a climate chamber.
After 7 days egg deposition of fertile eggs is monitored. Eggs where fertility is not visible are stored in a climate chamber till hatching after about 42 days. An efficacy of 100% means all eggs are infertile; 0% means all eggs are fertile.

In experiment [7] the test system is Culex quinquefasciatus strain P00. As to the kind of experiment: Culex quinquefasciatus test (surface treatment & contact assay). The following applies: 24 hours after contact, read-out: efficacy (mortality). As to the method:
(§1) • Solvent: Aceton+2000 ppm rapeseed oil methyl ester (RME)
In order to produce a sufficient, active ingredient containing solution it is necessary to solve the test compound in the solvent-mix (acetone at 2 mg/ml/RME 2000 ppm). This solution is pipetted onto a glazed tile and after evaporation of the acetone, adult mosquitoes of the species Culex quinquefasciatus strain P00 are placed onto the dried surface. The exposure time is 30 minutes.
(§2) Mortality in percent (%) is determined 24 hours after contact of the insects to the treated surface. 100% mortality means that all tested insects are dead, whereas 0% means that no insect died.

In experiment [8] the test system is Blattella germanica strain PAULINIA
As to the kind of experiment: Blattella germanica test (surface treatment & contact assay). The following applies: 24 hours after contact, read-out: efficacy (mortality). How it is done: as §1
In order to produce a sufficient, active ingredient containing solution it is necessary to solve the test compound in the solvent-mix (acetone at 2 mg/ml/RME 2000 ppm). This solution is pipetted onto a glazed tile and after evaporation of the acetone, adult animals of the species Blattella germanica strain […] are placed onto the dried surface. The exposure time is 30 minutes.
as §2

Where [9] appears, read: surface concentration 4 mg/m^2, 30 min exposure.
Setting [10] is: surface concentration 20 mg/m^2, 30 min exposure.

As a reminder, the mortality is the percentage killed. Consider `CC(c1ncnn1-c1ncccn1)N(Cc1ccccn1)C(=O)c1cc(Cl)cc(C(F)(F)F)c1` (centres unmarked) [Example I-001, 3-Chloro-N-(pyridin-2-ylmethyl)-N-{1-[1-(pyrimidin-2-yl)-1H-1,2,4-triazol-5-yl]ethyl}-5-(trifluoromethyl)benzamide], for which the mortality at 20 mg/m2 in experiment [1] and in experiment [2] was 90 to 100% in each case. Also, the mortality at 4 mg/m2 in experiment [2] fell in the range of 90 to 100%. For the same compound, the mortality at 500 g/ha with Nezara viridula was found to be 100%; in experiment [3], 95%; with Nilaparvata lugens it was 90%; with Spodoptera frugiperda, 100%; in the experiment on Phaedon cochleariae, 100%. For the same compound, in the experiment with Meloidogyne incognita, the “nematicidal activity (gall formation)” value amounted to 90%. For the same compound, in the experiment on Myzus persicae, the mortality at 4 ppm was found to be 100%. For the same compound, the mortality at 20 ppm in the experiment with Myzus persicae worked out at 100%. This compound also had a mortality at 100 ppm with Ctenocephalides felis [4] of 100%. Also, the pest or weed control at 5 µg/cm2 with Ctenocephalides felis [5] is 100%. The pest or weed control at 0.02 mg with Boophilus microplus was found to be 100%.
Take `CC(c1ncnn1-c1ncccn1)N(C(=O)c1cc(Cl)cc(C(F)(F)F)c1)C1CC1` (centres unmarked) [Example I-002]: the “nematicidal activity (gall formation)” value in the experiment with Meloidogyne incognita amounted to 100%. Moreover, the mortality at 500 g/ha came to 100% in the experiment on Spodoptera frugiperda and 83% in the experiment on Phaedon cochleariae.
`CC(c1ncnn1-c1ncccn1)N(CCc1ccc(F)cc1)C(=O)c1cc(Cl)cc(C(F)(F)F)c1` (centres unmarked) [Example I-003]: the “efficacy (infertile eggs)” value in experiment [6] is reported as 100%. In addition, the mortality at 20 mg/m2 in experiment [1] and in experiment [2] was 90 to 100% throughout. The mortality at 4 mg/m2 in experiment [2] was in the range of 90 to 100%. Besides, the mortality at 500 g/ha with Nezara viridula, with Nilaparvata lugens, in the experiment on Spodoptera frugiperda and in the experiment with Phaedon cochleariae was 100% in each case. Also, in the experiment with Myzus persicae, the mortality at 4 ppm is 100%. In the experiment on Myzus persicae, the mortality at 20 ppm stood at 100%. This compound showed a mortality at 100 ppm in the experiment on Ctenocephalides felis [4] of 100%. Moreover, the pest or weed control at 0.02 mg in the experiment on Boophilus microplus came out at 100%.
In the case of `CC(c1ncnn1-c1ncccn1)N(CCS(C)(=O)=O)C(=O)c1cc(Cl)cc(C(F)(F)F)c1` (centres unmarked) [Example I-022], the mortality at 4 mg/m2 in experiment [1] (setting [9]) lay in the range of 80 to 100%; in experiment [2], 90 to 100%; in experiment [7] (setting [9]) it was 85 to 100%; in experiment [8] (setting [9]), 80 to 100%. The mortality at 20 mg/m2 in [1] was 90 to 100%; in experiment [2] it was 90 to 100%; in experiment [7] (setting [10]), 90 to 100%; in experiment [8] (setting [10]) it was 80 to 100%. Besides, the mortality at 4 ppm in the experiment on Myzus persicae is 100%. Also, the mortality at 20 ppm with Myzus persicae came out at 100%. The compound also came in with a mortality at 100 ppm in the experiment with Ctenocephalides felis [4] of 100%. Further, in the experiment on Ctenocephalides felis [5], the pest or weed control at 5 µg/cm2 stood at 100%. Further, the pest or weed control at 0.02 mg with Boophilus microplus stood at 100%. Besides, the mortality at 500 g/ha with Spodoptera frugiperda and in the experiment with Phaedon cochleariae was 100% throughout.
